IC50 data for 2 compounds are collected here from ChEMBL document CHEMBL1201862, “PubChem BioAssay data set” (2004).

Active and inactive are the calls of the source. No stated cut-off is given here; in the data, actives have a measured IC50 and inactives only a lower limit.

The target of this assay is Envelope glycoprotein gp160 (Human immunodeficiency virus 1, UniProt Q6QLK5). Put plainly: inhibitors of HIV fusion peptide binding, primary screen, biochemical, uHTS, fluorescence dequenching (AID 1986).
Chain of Envelope glycoprotein gp160 (Q6QLK5 whole entry, the tested form may be a part): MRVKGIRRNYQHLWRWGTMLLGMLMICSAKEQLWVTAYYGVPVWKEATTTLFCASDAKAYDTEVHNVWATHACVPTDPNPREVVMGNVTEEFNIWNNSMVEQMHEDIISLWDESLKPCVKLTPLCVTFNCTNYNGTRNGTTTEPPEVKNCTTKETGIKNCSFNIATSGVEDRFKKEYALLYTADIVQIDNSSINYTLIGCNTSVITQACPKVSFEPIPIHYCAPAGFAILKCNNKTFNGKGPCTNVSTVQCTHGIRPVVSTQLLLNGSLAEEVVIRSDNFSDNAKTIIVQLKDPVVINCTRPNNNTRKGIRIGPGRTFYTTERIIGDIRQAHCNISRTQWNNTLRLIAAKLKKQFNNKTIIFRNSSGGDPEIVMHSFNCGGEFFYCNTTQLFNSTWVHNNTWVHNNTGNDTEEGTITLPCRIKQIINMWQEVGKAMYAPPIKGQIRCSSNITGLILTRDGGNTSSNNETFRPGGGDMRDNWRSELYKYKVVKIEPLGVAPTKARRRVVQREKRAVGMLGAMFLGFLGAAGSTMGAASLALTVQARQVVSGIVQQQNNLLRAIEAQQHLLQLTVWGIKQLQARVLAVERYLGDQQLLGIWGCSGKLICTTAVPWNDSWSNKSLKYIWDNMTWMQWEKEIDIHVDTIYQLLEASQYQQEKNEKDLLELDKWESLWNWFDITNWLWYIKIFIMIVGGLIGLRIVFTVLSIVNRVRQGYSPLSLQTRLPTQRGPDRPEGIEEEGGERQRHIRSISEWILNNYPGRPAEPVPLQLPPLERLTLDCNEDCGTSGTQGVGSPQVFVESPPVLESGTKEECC

For `CC(/C=C1\SC(=S)N(c2ccc(C(=O)O)cc2)C1=O)=C\c1ccccc1`, the half-maximal inhibitory concentration (IC50) (as a rule, the concentration that gives 50% inhibition) is 16.2 µM (active). The result for `C=CCOc1ccc(C(c2c(C(=O)O)[nH]c3ccccc23)c2c(C(=O)O)[nH]c3ccccc23)cc1` reads 5.01 µM (active).
